Experimental findings from article PMC12040169 (PLOS Biology, 2025) are described below.

The first data set in a line: in vitro. Particulars: human, hela cells, % viability.
With `CC1=NN(c2ccc(Cl)cc2)C(=O)/C1=C\Nc1nnn[nH]1` [CBK262407], the viability (as a rule, a read-out of living cells in per cent, often relative to untreated cells) at 28.5 h, 10 µM came to 91%.

Regarding `COc1ccc(N(C(C)C(=O)N/N=C2\C(=O)Nc3ccccc32)S(C)(=O)=O)cc1` (stereo not drawn) [CBK262408], the viability at 28.5 h, 10 µM amounted to 98.5%.

Consider `Cc1ccc(N(CC(=O)O)S(=O)(=O)c2ccc(C)cc2)cc1` [CBK262409], for which the viability at 28.5 h, 10 µM was 106%.

With `COc1cccc(NC(=O)C2CCCCC2C(=O)O)c1` (stereo not drawn) [CBK262410], the viability at 28.5 h, 10 µM amounted to 93.1%.

For `O=C(O)CSc1nc2ccccc2n1Cc1ccccc1` [CBK262411], the viability at 28.5 h, 10 µM was 94.2%.

`Brc1ccc2nc3c(nc2c1)Nc1nonc1N3` [CBK262414]: the viability at 28.5 h, 10 µM was determined as 78.5%.

Turning to `COC(=O)c1ccc(C)c(N(CCO)CCO)c1` [CBK262418], the viability at 28.5 h, 10 µM is 102%.

Regarding `O=C(O)c1cccc(N(CCO)CCO)c1` [CBK262419], the viability at 28.5 h, 10 µM came to 93.6%.

`O=CNC(Cc1ccc(O)c([N+](=O)[O-])c1)C(=O)O` (stereo not drawn) [CBK262421]: the viability at 28.5 h, 10 µM was 101%.

As to `O=C(O)c1cc(-c2ccc3c(c2)OCCO3)nc2ccccc12` [CBK262422], the viability at 28.5 h, 10 µM is 92.5%.

`Cc1ccc(S(=O)(=O)N(CC(=O)O)c2ccccc2C)cc1` [CBK262423]: the viability at 28.5 h, 10 µM was 101%.

For `O=C1C2C(c3ccccc3Cl)OC3(C(=O)c4ccccc4C3=O)C2C(=O)N1c1ccc([N+](=O)[O-])cc1` (stereo not drawn) [CBK262425], the viability at 28.5 h, 10 µM stood at 101%.

`O=c1cccc2n1CC1CC2CN(Cc2cccc(OCc3ccccc3)c2)C1` (stereo not drawn) [CBK262426]: the viability at 28.5 h, 10 µM was 102%.

Consider `CC1=NN(c2nc(-c3cccc([N+](=O)[O-])c3)cs2)C(=O)C1/N=N/c1ccc(C)c(Br)c1` (stereo not drawn) [CBK262430], for which the viability at 28.5 h, 10 µM turned out to be 104%.

`C=CCN1C(=O)/C(=C2/Sc3ccc(OC)cc3N2C)S/C1=N\c1cc(C#N)ccc1NCC` [CBK262431]: the viability at 28.5 h, 10 µM was found to be 108%.

For the molecule `O=C(O)c1ccc(/C=N/Nc2nc(N3CCOCC3)nc(N3CCOCC3)n2)cc1` [CBK262433], the viability at 28.5 h, 10 µM worked out at 99%.

Regarding `CC1=NN(c2nc(-c3ccc(Br)cc3)cs2)C(=O)C1/N=N/c1ccc(C(=O)O)cc1` (stereo not drawn) [CBK262435], the viability at 28.5 h, 10 µM is 86.7%.

As to `COc1cc2c(cc1NC(=O)C/C(C)=N/NC(=O)c1ccccc1F)oc1ccccc12` [CBK262437], the viability at 28.5 h, 10 µM was determined as 106%.

For `Cn1c(=O)[nH]c(=O)c2c1nc(N1CCOCC1)n2CC(O)COc1ccc(I)cc1` (stereo not drawn) [CBK262438], the viability at 28.5 h, 10 µM stood at 111%.

On to `O=C(O)c1cccc(N2C(=O)C3C(C2=O)C2(c4ccccc4)C(=O)C3(c3ccccc3)C(c3ccccc3)=C2c2ccccc2)c1` (stereo not drawn) [CBK262439], for which the viability at 28.5 h, 10 µM is 84.8%.

`O=C(O)Cn1cnc(-c2ccc(Br)cc2)c1` [CBK262441]: the viability at 28.5 h, 10 µM was 111%.

Regarding `COC(=O)c1ccc2c(c1)[n+](CCO)c(C)n2CCO` [CBK262443C], the viability at 28.5 h, 10 µM turned out to be 88.1%.

Turning to `CNC(=S)NNC(=O)CN1CCSCC1` [CBK262444], the viability at 28.5 h, 10 µM was 88.3%.

In the case of `N=C(SC1CC(=O)N(c2ccc(C(=O)O)cc2)C1=O)N1N=C(c2ccccc2)CC1c1ccccc1` (stereo not drawn) [CBK262446], the viability at 28.5 h, 10 µM was 90.9%.

For `COC(=O)Cn1c(=N)n(CCN2CCOCC2)c2ccccc21` [CBK262447B], the viability at 28.5 h, 10 µM turned out to be 109%.

Take `O=[N+]([O-])c1ccc(-c2csc(Nc3ccc4c(c3)OCO4)n2)cc1` [CBK262448B]: the viability at 28.5 h, 10 µM is 100%.

For `O=C(NC(c1ccccc1)c1ccccc1)c1ccc(Cl)cc1[N+](=O)[O-]` [CBK262452], the viability at 28.5 h, 10 µM was determined as 84.1%.

With `CCN(CC)CCNc1nc2cc(Cl)ccc2[nH]1` [CBK262453], the viability at 28.5 h, 10 µM stood at 102%.

Take `COc1cc(/C=N/NC(=O)c2ccncc2)ccc1OCc1ccc(Cl)cc1` [CBK262454]: the viability at 28.5 h, 10 µM was 114%.

Consider `COc1ccc(C(=O)Nc2ccc(C(C)=O)cc2)cc1[N+](=O)[O-]` [CBK262457], for which the viability at 28.5 h, 10 µM was determined as 90.8%.

As to `CC(/C=C/c1ccc(N(C)C)cc1)=N\NC(=N)SC1CC(=O)N(c2ccc(C(=O)O)cc2)C1=O` (stereo not drawn) [CBK262460], the viability at 28.5 h, 10 µM worked out at 91.6%.

`O=C(N/N=C/c1c[nH]nc1-c1ccccc1)c1cccnc1` [CBK262461]: the viability at 28.5 h, 10 µM stood at 101%.

Turning to `NS(=O)(=O)c1ccc(CNC2CC(=O)N(CCc3ccccc3)C2=O)cc1` (stereo not drawn) [CBK262464], the viability at 28.5 h, 10 µM was 91.7%.

As to `COc1cc(NS(=O)(=O)c2ccc(NC(=O)c3cccc4ccccc34)cc2)nc(OC)n1` [CBK262465], the viability at 28.5 h, 10 µM is 96.6%.

`Cc1cc(C(=O)NCCCN(C)C)ccc1[N+](=O)[O-]` [CBK262467]: the viability at 28.5 h, 10 µM turned out to be 90.8%.

On to `Oc1cccc(/C=N/Nc2nncc(-c3ccccc3)n2)c1` [CBK262468], for which the viability at 28.5 h, 10 µM was 86.6%.

On to `N=c1n(Cc2ccccc2)c2ccccc2n1CC(O)COc1ccc(Cl)cc1` (stereo not drawn) [CBK262469C], for which the viability at 28.5 h, 10 µM is 94.4%.

Take `O=C(CN(c1cccc(Cl)c1)S(=O)(=O)c1ccccc1)NN=C1CCCCC1` [CBK262470]: the viability at 28.5 h, 10 µM was determined as 114%.

As to `Cc1cc([N+](=O)[O-])cc2c1NC(=O)C2(O)N1CCOCC1` (stereo not drawn) [CBK262475], the viability at 28.5 h, 10 µM is 91.7%.

As to `C=CCn1c(=O)c(C(=O)NCCCO)c(O)c2ccccc21` [CBK262481], the viability at 28.5 h, 10 µM was found to be 83.9%.

As to `COc1cc(/C=C(\C#N)c2nn(-c3ccccc3)c(N)c2C#N)ccc1Oc1ccc(C(F)(F)F)cc1[N+](=O)[O-]` [CBK262484], the viability at 28.5 h, 10 µM worked out at 92.7%.

With `NC(=O)c1c(NC(=O)c2ccc(S(=O)(=O)N3CCCC3)cc2)sc2c1CCCC2` [CBK262486], the viability at 28.5 h, 10 µM is 106%.

For `CCC(=O)c1c(-c2ccccc2)nc2n(C)c3ccccc3n12` [CBK262488], the viability at 28.5 h, 10 µM was determined as 69.9%.

On to `Cc1ccc(C)c(Nc2nc3nonc3nc2N2CCOCC2)c1` [CBK262491], for which the viability at 28.5 h, 10 µM worked out at 88.8%.

In the case of `Oc1ccc(/C=N/Nc2nncc(-c3ccccc3)n2)c(O)c1O` [CBK262492], the viability at 28.5 h, 10 µM stood at 80.6%.

In the case of `O=C(N/N=C/c1ccc(N2N=C(c3ccc(Cl)cc3)CC2c2ccc(Cl)cc2)cc1)c1cccnc1` (stereo not drawn) [CBK262494], the viability at 28.5 h, 10 µM turned out to be 103%.

Regarding `CCN(CC)CC(O)Cn1c(-c2ccccc2Cl)nc2ccccc21` (stereo not drawn) [CBK262495], the viability at 28.5 h, 10 µM was determined as 96.3%.

Regarding `COc1ccc([N+](=O)[O-])cc1-c1ccc(-c2nc(-c3ccccc3)c(-c3ccccc3)[nH]2)o1` [CBK262497], the viability at 28.5 h, 10 µM turned out to be 77.3%.

For `Cn1c(CNc2ccc(C(=O)O)cc2)nc2ccccc21` [CBK262501], the viability at 28.5 h, 10 µM worked out at 95.1%.

Turning to `CCOC(=O)c1[nH]c(C)c(C(=O)N/N=C/c2ccc(-c3ccc(Cl)cc3)o2)c1C` [CBK262503], the viability at 28.5 h, 10 µM is 95%.

With `O=C1c2ccccc2C(=O)N1c1ccc(S(=O)(=O)NCCCO)c2ccccc12` [CBK262509], the viability at 28.5 h, 10 µM amounted to 105%.

Regarding `N=c1n(CCN2CCCCC2)c2ccccc2n1CC(O)COc1ccc(Cl)cc1` (stereo not drawn) [CBK262512C], the viability at 28.5 h, 10 µM stood at 89.7%.

On to `CC(=O)Nc1nnc(SCCc2ccccc2)[nH]1` [CBK262514], for which the viability at 28.5 h, 10 µM was 95.6%.

As to `NNC(=O)c1c(NC(=O)c2ccccc2)sc2c1CCC2` [CBK262516], the viability at 28.5 h, 10 µM was determined as 104%.

Consider `CCN(CC)CCn1c(=N)n(CC(=O)OC)c2ccccc21` [CBK262517B], for which the viability at 28.5 h, 10 µM came out at 87.3%.

For the molecule `O=C(CN(c1cccc(Cl)c1)S(=O)(=O)c1ccccc1)NN=C1CCCCCC1` [CBK262519], the viability at 28.5 h, 10 µM amounted to 89.9%.

Regarding `CC1(C)CC(=O)C(=CNCC(N)=O)C(=O)C1` [CBK262520], the viability at 28.5 h, 10 µM stood at 87.2%.

For `O=C1CC(c2ccccc2)CC(=O)C1=CNCCN1CCOCC1` (stereo not drawn) [CBK262522], the viability at 28.5 h, 10 µM was determined as 94%.

As for `Cc1ccccc1OCCSc1nc2ccccc2n1CCO` [CBK262523], the viability at 28.5 h, 10 µM is 98.1%.

Turning to `COC(=O)c1ccccc1NC(=O)c1cc2nc(-c3cccs3)cc(C(F)(F)F)n2n1` [CBK262524], the viability at 28.5 h, 10 µM came out at 88%.

Regarding `C=CCOC(=O)C1=C(C)OC(N)=C(C(=O)OCc2ccccc2)C12C(=O)Nc1ccccc12` (stereo not drawn) [CBK262527], the viability at 28.5 h, 10 µM was 90.9%.

Turning to `Cc1nc(N/C(=N/C(=O)c2ccccc2)NC(=O)c2ccccc2)nc2ccccc12` [CBK262529], the viability at 28.5 h, 10 µM was determined as 103%.

Regarding `CN(C)c1ccc(/C=C(\C#N)c2nn(-c3ccccc3)c(N)c2C#N)cc1[N+](=O)[O-]` [CBK262532], the viability at 28.5 h, 10 µM amounted to 83.4%.

Take `O=C(Nc1cc(Oc2cccnc2)cc([N+](=O)[O-])c1)c1nn2c(C(F)(F)F)cc(-c3cccs3)nc2c1Br` [CBK262535]: the viability at 28.5 h, 10 µM turned out to be 84.7%.

As for `O=C(c1ccc(S(=O)(=O)N2CCCCC2)cc1)N1CCN(CCN2C(=O)c3cccc4cccc(c34)C2=O)CC1` [CBK262536], the viability at 28.5 h, 10 µM came to 79.3%.

`CCOC(=O)c1c(NC(=O)c2nn3c(C(F)(F)F)cc(-c4cccs4)nc3c2Cl)sc2c1CCCC2` [CBK262539]: the viability at 28.5 h, 10 µM was determined as 95.1%.

Turning to `O=S(=O)(NCC(O)Cn1c2ccc(Cl)cc2c2cc(Cl)ccc21)c1ccccc1` (stereo not drawn) [CBK262542], the viability at 28.5 h, 10 µM was determined as 88.6%.

For `O=[N+]([O-])c1ccc(NCCCNS(=O)(=O)c2ccc(Cl)cc2)c(Cl)c1` [CBK262543], the viability at 28.5 h, 10 µM amounted to 90.6%.

For the molecule `OC(Cn1c(Cc2ccccc2)nc2ccccc21)Cn1c2ccc(Cl)cc2c2cc(Cl)ccc21` (stereo not drawn) [CBK262546], the viability at 28.5 h, 10 µM came to 89.4%.

Turning to `CCOC(=O)C1=c2s/c(=C\c3cccnc3)c(=O)n2C(N)=C(C#N)C1c1cccnc1` (stereo not drawn) [CBK262549], the viability at 28.5 h, 10 µM came out at 107%.

Regarding `O=C(O)CCn1c2ccc(Br)cc2c2cc(Br)ccc21` [CBK262551], the viability at 28.5 h, 10 µM is 83.9%.

On to `CCOC(=O)c1c(NC(=O)c2cc3ccccc3o2)sc2c1CCCC2` [CBK262552], for which the viability at 28.5 h, 10 µM was found to be 84%.

For `O=C(NCCCN1CCOCC1)c1nn2c(C(F)(F)F)cc(-c3cccs3)nc2c1Cl` [CBK262553], the viability at 28.5 h, 10 µM worked out at 82%.

The data set is the same for the next values; noted with them: human, hela cells, % viability, bulk resorufin, single well.
With `CN(C)Cc1c(O)[nH]c(=S)[nH]c1=O` [CBK262474], the viability at 28.5 h, 10 µM turned out to be 92.6%.

Take `O=c1[nH]c(=S)[nH]c(O)c1CN1CCOCC1` [CBK262493]: the viability at 28.5 h, 10 µM was found to be 98.7%.
